# Test results from patent US20050245577A1, “Drug for kidney failure containing oxaluric acid derivative” (priority 2002, published 2005).
# Test system: SD-strain rats
# Test: Single dose toxicity test
# Assay type: in vivo
# Conditions: intravenous single dose 75 to 600 mg/kg, even at 600 mg/kg, 5 males and 5 females
# Experimental: 5-Methyloxaluric acid was intravenously administered to SD-strain rats (6 weeks age, 5 males and 5 females) at the dose of 75 to 600 mg/kg.
structure (smiles),measurement,value
"CNC(=O)NC(=O)C(=O)O [5-Methyloxaluric acid, 5-methyloxaluric acid]",death,no death
